Laboratory results published in patent US9504692B2, “Selective inhibition of MALT1 protease by phenothiazine derivatives” (HELMHOLTZ ZENTRUM MUNCHEN, DEUTSCHES FORSCHUNGSZENTRUM FUR …, priority 2011, dated 2016).
“Also recorded” adds a separate entry of the source. Like-named read-outs stand apart in the source and are kept apart here. Blank lines part the entries; values can stand above or below the compound they belong to. *1 amine or outer side, *2 acyl side, *3 side chain or, on linkers, in order; H or OH if unused. Where a SMILES comes first, the peptide text is derived from it. [ ]: non-standard residue; d: D form. The star is where a group is joined. Sta = CC(C)C[C@H](N)[C@@H](O)CC(=O)O; Isovaleryl = CC(C)CC(=O)*; CO = O=C([*:1])[*:2]

Assays:
AtMC9 = AtMC9 (Arabidopsis thaliana (Mouse-ear cress), UniProt Q9FYE1); details: cited from earlier work
AtMC4 = AtMC4 (Arabidopsis thaliana (Mouse-ear cress), UniProt O64517); details: cited from earlier work
[1] = target: recombinant full length (FL) GSTMALT1 (Homo sapiens (Human), UniProt Q9UDY8); experiment: Recombinant GSTMALT1 cleavage assay with Ac-LRSR-AMC; assay type: biochemical
Experimental: The MALT1 cleavage assay was used to screen ˜18000 small molecules of the ChemBioNet library at the Leibniz Institute for Molecular Pharmacology (FMP) in Berlin.^35 Screening volume was 11 μl in a 384-well non-binding assay plate (Corning) with […] GSTMALT1 against 10 μM final concentration of compounds. The assay was performed with 50 μM of Ac-LRSR-AMC substrate for 20 min at 30° C. As a negative control the recombinant MALT1 mutant C453A was used, as a medium inhibition control 1 nM of the Z-VRPR-FMK peptide.
To screen for small molecular weight compounds that can inhibit MALT1 protease activity, recombinant GSTMALT1 was purified from E. coli to establish an in vitro protease cleavage assay suitable for high throughput screening (HTS). GSTMALT1 was incubated for 1 h at 30° C. in the presence of 50 μM of the tetrapeptide substrate Ac-LRSR-AMC, which is derived from the MALT1 cleavage site in the C-terminus of BCL10.^7 Proteolytic activity was determined by measuring the increase of fluorescence, which is emitted after cleavage and the accompanying release of the fluorophore AMC (FIGS. 1A and B). […] Similar to arginine-lysine specific metacaspases, the MALT1 protease has a high preference for cleaving after an arginine residue.

[2] = tested on: GCB-DLBCL cell lines BJAB, Su-DHL-6 and Su-DHL-4; experiment: MTT cytotoxicity test, GCB-DLBCL cells; assay type: cell-based; details: two days, single treatment, increasing concentrations
Experimental: (§1) Viability of DLBCL cell lines was analysed with a cell count assay of trypan blue stained cells after four days and by MTT (3-4,5-Dimethylthiazol-2-yl-2,5-diphenyltetrazoliumbromid) cytotoxicity test after two days of dose-dependent inhibitor treatment in comparison to DMSO treated control cells. The cell-dependent reduction of MTT to formazan was measured at λ=450 nm with a μQuant microplate spectrophotometer (Biotek). Apoptosis rates were determined with PE-Annexin V staining of 7AAD^− cells (BD Pharmingen) by FACS analysis (LSRII, BD) after five days of compound treatment. Data was analyzed using FlowJo software (Treestar).
(§2) Further, cell viability was determined by cell counting after 4 days of treatment (FIG. 7B, D and FIG. 12C).

primary human PBMCs = experiment: IL-2 secretion of primary human PBMCs (ELISA); assay type: cell-based; details: 5 and 10 μM for 3 h; anti-CD3/CD28 20 h
Jurkat T cells = experiment: IL-2 secretion of Jurkat T cells (ELISA); assay type: cell-based, human; details: 5 and 10 μM; P/I or anti-CD3/CD28 for 20 h
[3] = tested on: ABC-DLBCL cell line OCI-Ly10; experiment: Murine DLBCL xenogeneic tumor model, ABC-DLBCL OCI-Ly10; assay type: in vivo, NSG mice
Experimental: (§3) (A) Transplantation of OCI-Ly10 or Su-DHL-6 cells resuspended in matrigel (BD) into the flanks of NOD.Cg-Prkdc^scid ll2rg^tm1Wjl/SzJ (NSG) mice was carried out on day 0. Tumor size was determined by caliper measurement. […] Apoptosis was determined on tumor sections by TUNEL staining after 22 days of treatment. Pictures show staining of representative tumor sections. […] Expression of RelB and the MALT1-dependent cleavage product RelBΔ were detected in extracts of OCI-Ly10 tumor specimens by Western Blotting after 22 days.
(§4) For this purpose, the ABC-DLBCL cell line OCI-Ly10 and the GCB-DLBCL cell line Su-DHL-6 were injected as subcutaneous xenografts into NOD/scid IL-2Rg^null (NSG) mice (FIG. 8A). Both tumor cell lines were engrafted simultaneously on opposite flanks of individual mice.
(§5) Transplanted tumors were removed at the end of the treatment period and apoptotic cells were visualized by TUNEL staining on sections of the tumor tissue (FIG. 8B).

NF-κB = NF-κB DNA binding (EMSA) and NF-κB target proteins in ABC-DLBCL cells; assay type: cell-based; details: 10 and 20 μM
[4] = tested on: primary murine CD4+ T-cells; experiment: IL-2 mRNA (qPCR) and protein (ELISA) in primary murine CD4+ T cells; assay type: cell-based, mouse; details: 5 and 10 μM
[5] = tested on: GCB-DLBCL cell line Su-DHL-6; experiment: Murine DLBCL xenogeneic tumor model, GCB-DLBCL Su-DHL-6; assay type: in vivo, NSG mice
Experimental: as §3, §4, §5

GCB-DLBCL cells [6] = experiment: Apoptosis by AnnexinV-PE/7-AAD FACS, GCB-DLBCL cells; assay type: cell-based; details: 15 μM, five days
Experimental: as §1

ABC-DLBCL cells [7] = experiment: Apoptosis by AnnexinV-PE/7-AAD FACS, ABC-DLBCL cells; assay type: cell-based; details: 15 μM, five days
Experimental: as §1

[8] = tested on: ABC-DLBCL cells HBL1, OCI-Ly3, U2932 and TMD8; experiment: MTT cytotoxicity test, ABC-DLBCL cells; assay type: cell-based; details: two days, single treatment, increasing concentrations
Experimental: as §1, §2

ABC-DLBCL cells [9] = experiment: IL-6 and IL-10 secretion of ABC-DLBCL cells (ELISA); details: 20 h; ABC cell lines
Experimental: Whole cell extracts, Western blotting and EMSA were performed as described previously.^9 Antibodies used were BCL-XL (Cell signaling), MALT1 (H300, B12), BCL10 (H197), c-FLIP (Alexis Biochemicals) and β-Actin (I-19). BCL10 cleavage was visualized after 20 h treatment of diffuse large B-cell lymphoma cells with different doses of PD.

ABC-DLBCL cells [10] = experiment: Viability by cell counting, ABC-DLBCL cells; assay type: cell-based; details: 4 days of treatment
Experimental: as §1, §2

GCB-DLBCL cells [11] = experiment: Viability by cell counting, GCB-DLBCL cells; assay type: cell-based; details: 4 days of treatment
Experimental: as §1, §2

human recombinant CASP8 = human recombinant CASP8 (Homo sapiens (Human), UniProt Q14790); experiment: CASP8 cleavage assay with Ac-DEVD-AMC; assay type: biochemical; details: 50 pM; picomolar concentrations
Experimental: After incubation of 16 h at 4° C.

[12] = daily i.p., mepazine 12 mg/kg or thioridazine 16 mg/kg, 22 days

AtMC4, sequence (O64517 whole entry): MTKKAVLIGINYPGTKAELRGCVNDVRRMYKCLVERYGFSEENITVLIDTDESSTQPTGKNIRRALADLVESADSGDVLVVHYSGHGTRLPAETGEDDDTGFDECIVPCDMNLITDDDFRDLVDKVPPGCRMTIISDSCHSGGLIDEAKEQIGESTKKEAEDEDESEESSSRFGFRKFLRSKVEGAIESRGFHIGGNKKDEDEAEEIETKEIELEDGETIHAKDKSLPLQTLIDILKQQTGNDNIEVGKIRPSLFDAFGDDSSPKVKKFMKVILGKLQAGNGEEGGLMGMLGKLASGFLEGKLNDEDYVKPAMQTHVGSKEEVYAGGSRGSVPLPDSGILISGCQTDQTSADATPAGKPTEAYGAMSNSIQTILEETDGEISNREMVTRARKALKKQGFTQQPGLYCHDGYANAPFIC
AtMC9, sequence (Q9FYE1 whole entry): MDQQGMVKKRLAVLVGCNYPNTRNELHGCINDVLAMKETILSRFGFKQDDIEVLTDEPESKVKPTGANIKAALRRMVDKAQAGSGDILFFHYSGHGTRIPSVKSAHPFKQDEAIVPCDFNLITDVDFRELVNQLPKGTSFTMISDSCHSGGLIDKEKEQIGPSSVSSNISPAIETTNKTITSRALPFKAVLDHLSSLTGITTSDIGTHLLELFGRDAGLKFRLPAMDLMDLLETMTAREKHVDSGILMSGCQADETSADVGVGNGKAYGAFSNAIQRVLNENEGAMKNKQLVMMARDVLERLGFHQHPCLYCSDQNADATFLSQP
recombinant full length (FL) GSTMALT1, sequence (Q9UDY8 other isoform, or with tags, fused parts or gaps): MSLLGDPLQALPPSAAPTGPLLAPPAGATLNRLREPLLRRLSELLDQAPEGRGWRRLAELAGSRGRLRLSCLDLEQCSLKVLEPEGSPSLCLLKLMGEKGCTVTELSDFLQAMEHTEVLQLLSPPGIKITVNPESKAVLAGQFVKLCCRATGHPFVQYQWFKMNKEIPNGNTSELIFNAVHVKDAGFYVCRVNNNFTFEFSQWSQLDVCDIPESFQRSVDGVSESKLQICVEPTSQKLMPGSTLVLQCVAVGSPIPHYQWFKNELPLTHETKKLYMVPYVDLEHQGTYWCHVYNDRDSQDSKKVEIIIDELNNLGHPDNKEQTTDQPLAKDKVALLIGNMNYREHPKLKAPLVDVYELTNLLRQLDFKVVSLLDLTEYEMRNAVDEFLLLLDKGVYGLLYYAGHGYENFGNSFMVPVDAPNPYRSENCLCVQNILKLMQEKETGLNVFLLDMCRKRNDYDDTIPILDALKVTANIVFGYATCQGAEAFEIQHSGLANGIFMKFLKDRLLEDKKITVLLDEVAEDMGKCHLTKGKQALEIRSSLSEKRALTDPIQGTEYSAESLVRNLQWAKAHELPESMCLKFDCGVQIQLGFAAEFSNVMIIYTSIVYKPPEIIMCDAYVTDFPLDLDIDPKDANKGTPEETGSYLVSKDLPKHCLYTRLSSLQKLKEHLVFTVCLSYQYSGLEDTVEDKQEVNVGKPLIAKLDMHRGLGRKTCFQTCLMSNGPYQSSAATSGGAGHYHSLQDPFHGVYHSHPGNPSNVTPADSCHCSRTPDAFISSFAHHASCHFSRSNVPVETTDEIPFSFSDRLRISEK
human recombinant CASP8, sequence (Q14790 217-374): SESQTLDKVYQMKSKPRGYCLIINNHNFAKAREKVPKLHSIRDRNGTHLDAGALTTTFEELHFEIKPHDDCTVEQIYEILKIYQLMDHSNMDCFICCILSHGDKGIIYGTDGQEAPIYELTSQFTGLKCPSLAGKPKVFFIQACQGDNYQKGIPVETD
human recombinant CASP8, sequence (Q14790 385-479): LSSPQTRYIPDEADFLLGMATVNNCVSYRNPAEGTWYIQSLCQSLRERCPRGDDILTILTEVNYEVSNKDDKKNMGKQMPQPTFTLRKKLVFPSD

Compound: CC(C)[C@H](NC(=O)[C@H](CCCNC(=N)N)NC(=O)N[C@@H](Cc1ccccc1)C(=O)O)C(=O)N[C@H](C=O)CCCNC(=N)N [Antipain] ({Phe-CO}-Arg-Val-Arg-aldehyde)
effect on AtMC9 (AtMC9; 1 μM inhibitor): inhibited | effect on AtMC4 (AtMC4; 1 μM inhibitor): inhibited | effect on MALT1 activity ([1]; 1 μM inhibitor): diminished; also recorded: inhibited

Compound: CC(C)C[C@H](NC(=O)[C@@H](NC(=O)N[C@@H](Cc1ccccc1)C(=O)O)[C@@H]1CCN=C(N)N1)C(=O)N[C@H](C=O)Cc1ccccc1 [Chymostatin]
effect on AtMC9 (AtMC9; 100 μM inhibitor): inhibited | effect on AtMC4 (AtMC4; 100 μM inhibitor): inhibited | effect on MALT1 activity ([1]; 100 μM inhibitor): diminished; also recorded: inhibited

Compound: CC(C)C[C@H](NC(=O)[C@H]1O[C@@H]1C(=O)O)C(=O)NCCCCN=C(N)N [E-64]
effect on AtMC9 (AtMC9; 100 μM inhibitor): not AtMC9 | effect on AtMC4 (AtMC4; 100 μM inhibitor): mild effect | effect on MALT1 activity ([1]; 100 μM inhibitor): does not inhibit MALT1

Compound: CC(=O)N[C@@H](CC(C)C)C(=O)N[C@@H](CC(C)C)C(=O)N[C@H](C=O)CCCNC(=N)N [Leupeptin]
effect on AtMC9 (AtMC9; 1 μM inhibitor): acting stronger on plant metacaspases | effect on AtMC4 (AtMC4; 1 μM inhibitor): acting stronger on plant metacaspases

Compound: CC(C)CC(=O)N[C@H](C(=O)N[C@H](C(=O)N[C@@H](CC(C)C)[C@@H](O)CC(=O)N[C@@H](C)C(=O)N[C@@H](CC(C)C)[C@@H](O)CC(=O)O)C(C)C)C(C)C [Pepstatin A] (Isovaleryl-VV[Sta]A[Sta]-OH)
effect on MALT1 activity ([1]; 100 μM inhibitor): no effects

Compound: Cc1ccc(S(=O)(=O)NC(CCCCN)C(=O)CCl)cc1 (stereo not shown) [TLCK]
effect on AtMC9 (AtMC9; 1 μM inhibitor): strongly inhibits | effect on AtMC4 (AtMC4; 1 μM inhibitor): much weaker | effect on MALT1 activity ([1]; 1 μM inhibitor): no effects; also recorded: only mildly affecting MALT1 activity

Compound: CN1CCCC(CN2c3ccccc3Sc3ccccc32)C1 (stereo not shown) [mepazine, 10-[(1-methyl-3-piperidinyl)methyl]-10H-phenothiazine acetate]
cell viability by MTT [2]: without significantly affecting GCB-DLBCL cells | IL-2 secretion (primary human PBMCs): significant decrease of IL-2 secretion | secreted IL-2 levels (Jurkat T cells): decrease of IL-2 levels | constitutive RelB cleavage in OCI-Ly10 tumor specimens ([3]; Western Blot after 22 days): impaired | apoptotic cells in tumor sections (TUNEL) ([3]; after 22 days of treatment): increased the number of apoptotic cells | tumor growth of OCI-Ly10 xenograft [3, 12]: strongly impaired the expansion | BCL-XL and FLIP-L protein levels (NF-κB; 20 h): dose-dependent decrease | NF-κB target DNA binding (NF-κB; 20 hours): reduced NF-κB target DNA binding | IL-2 mRNA induction ([4]; 3 h pre-treatment, anti-CD3/CD28 4 h): reduced in a dose-dependent manner | IL-2 protein expression ([4]; anti-CD3/CD28 20 h): reduced in a dose-dependent manner | apoptotic cells in tumor sections (TUNEL) ([5]; after 22 days of treatment): no induction of apoptosis | tumor growth of Su-DHL-6 xenograft [5, 12]: completely failed to exert any inhibitory effects | apoptotic rate (GCB-DLBCL cells [6]): apoptosis was not increased | apoptotic rate (ABC-DLBCL cells [7]): enhanced apoptotic rate | cell viability by MTT [8]: promoted a decrease of cell viability | decrease of IL-6 and IL-10 secretion (ABC-DLBCL cells [9]): ~50%

Compound: c1ccc2c(c1)Nc1ccccc1S2 [phenothiazine]
inhibition of GSTMALT1 activity ([1]; 1, 5 and 20 μM): inhibiting MALT1 activity in a dose-dependent manner

Compound: CC(CN1c2ccccc2Sc2ccccc21)N(C)C (stereo not shown) [promethazine]
number of viable cells / viability (ABC-DLBCL cells [10]): did not significantly inhibit viability | MALT1 inhibition ([1]; concentrations up to 20 μM): not inhibiting MALT1 protease activity; also recorded: did not cause any significant MALT1 inhibition | number of viable cells / viability (GCB-DLBCL cells [11]): did not significantly inhibit viability

Compound: Ac-DEVD-CHO
CASP8 activity against Ac-DEVD-AMC (human recombinant CASP8): almost total decline of enzymatic activity; also recorded: effectively blocked CASP8 activity | effect on MALT1 activity ([1]; 200 μM inhibitor): not significantly active; also recorded: only marginally reduced MALT1 activity

Compound: Aprotinin
effect on MALT1 activity ([1]; 5 μg/ml inhibitor): no effects

decrease of MALT1 activity ([1]; 1 nM inhibitor, 50 μM Ac-LRSR-AMC, 1 h at 30° C.): ~50%
Compound: Z-VRPR-FMK
MALT1 cleavage activity with increasing amounts of inhibitor ([1]; increasing amounts, low nanomolar concentrations): total loss of MALT1 activity; also recorded: completely blocked MALT1 cleavage activity
